Source: PubChem BioAssay AID2305 (GlaxoSmithKline (GSK), 2010)

Test system: P. falciparum 3D7 growth, pLDH absorbance
Experiment: blood-stage malaria parasite growth potency – strain 3D7, dose response (AID 2305)

Row | Compound | IC50 [nM]
1 | Cc1nn(C)cc1C(C)Nc1nncc(-c2ccc(C(F)(F)F)cc2)n1 (stereo not drawn) | 250
2 | CN1CCN(c2ccc(CNc3ccc4ncc(-c5cccc(OC(F)(F)F)c5)n4n3)cc2)CC1 | 860
3 | O=C(/C=C/c1ccc(Cl)c(Cl)c1)N1CCC(CN2CCC(c3c(-c4ccc(F)cc4)[nH]c4ccccc34)CC2)CC1 | 170
4 | C1=C(c2c[nH]c3ccccc23)CCN(Cc2ccccc2)C1 | 1040
5 | N#Cc1ccc(-c2ccc(OCC(O)CN3CCCN(C(=O)C(c4ccc5c(c4)OCO5)N4CCN(C/C=C/c5ccccc5)CC4)CC3)cc2)cc1 (stereo not drawn) | 650
6 | CCCOc1cc(NC(=O)Nc2ccnc3ccccc23)cc(OCCC)c1 | 730
7 | N#Cc1c(F)cc(N2CCC(NCC[C@H](N)Cc3ccc(F)c(F)c3)CC2)cc1F | 860
8 | CCCCn1c(Sc2ccc(C#N)c([N+](=O)[O-])c2)nnc1-c1cc(OC)cc(OC)c1 | 820
9 | CN(C)CCn1c(=N)n(CC(O)c2ccc(Cl)c(Cl)c2)c2ccccc21 (stereo not drawn) | 800
10 | O=C(Nc1ccc2c(c1)CN(Cc1ccc(N3CCCC3)o1)CCC2)c1cncs1 | 1570
11 | COc1cc(F)c2nccc([C@@H](O)CN3CCC(NCc4nc5c(F)cccc5[nH]4)CC3)c2c1 | 850
12 | Cc1cccc2[nH]c(-c3ccc(-c4ccc(NC(=O)Nc5cccc(C#N)c5)cc4)s3)nc12 | 120
13 | CN(C)CCN(C)Cc1ccc(-c2ccc3c(Nc4ccc(Oc5ccccc5)cc4)ccnc3c2)o1 | 180
14 | O=C(Cc1cccc(Cl)c1)Nc1cccc(-c2c[nH]c3nc(Nc4ccccc4)ncc23)c1 | 680
15 | COc1cc(C(=O)Nc2cccc(-c3nc4ccccc4[nH]3)c2)cc(OC)c1OC | 720
16 | CCOC(=O)c1[nH]c(-c2ccc(-c3ccccc3)cc2)nc1N | 420
17 | COCCOC(=O)C(=O)c1c(-c2ccccc2)c(-c2ccc(OC)c(OC)c2)c2c3cc(OC)c(OC)cc3ccn12 | 500
18 | Cc1sc(CNCCCNc2cc(=O)c3ccccc3[nH]2)c(C(F)(F)F)c1C | 730
19 | Cc1cccc2[nH]c(-c3cccc(-c4ccc(NC(=O)C(C)CN(C)C)cc4)c3)nc12 (stereo not drawn) | 220

Row | Compound | IC50 [nM]
20 | O=C(Nc1ccc(NC2=NCCN2)cc1)Nc1ccc(NC2=NCCN2)cc1 | 850
21 | CC(C)(C)c1cc(C(=O)N2CCN(c3cnccn3)CC2)n(Cc2ccccc2)n1 | 1140
22 | CN1CCC(COC(=O)C(O)(c2ccccc2)c2ccccc2)C1 (stereo not drawn) | 1000
23 | CC(C)Cn1c2ccccc2c2nc3nc(N)nc(N)c3nc21 | 720
24 | COc1ccccc1Cc1nc2ccccc2nc1SCC(=O)Nc1cccc(C(F)(F)F)c1 | 500
25 | O=C(NCC1CCC(C(=O)NCc2cccc3ccccc23)CC1)c1ccc(O)c(-c2ccc(Cl)c(Cl)c2)c1 (stereo not drawn) | 750
26 | Cc1cccc2[nH]c(-c3cccc(-c4cccc(CNC(C)C)c4)c3)nc12 | 340
27 | N#Cc1ccc(CN2CCCN(c3ccc(NC(=O)c4ccc(F)cc4)cc3)CC2)cc1 | 1280
28 | O=C(/C=C/c1ccc(Cl)c(Cl)c1)NCCCCCN1CCC(NC(=O)Nc2ccc(C(F)(F)F)cc2)CC1 | 750
29 | CCC(C)C(COC(=O)c1cc(OC)c(OC)c(OC)c1)N(C)CCN(C)C(COC(=O)c1cc(OC)c(OC)c(OC)c1)C(C)CC (stereo not drawn) | 950
30 | CC(C)CCN1CCC(Oc2cccc(NC(=O)c3ccc(C(F)(F)F)cc3)c2)CC1 | 630
31 | O=C(c1ccc(OCCn2ccnc2)cc1)N1CCC(c2ccc(Br)cc2)C1 (stereo not drawn) | 120
32 | CC(C)(C)OC(=O)N(Cc1cc(-n2nnnc2C(F)(F)F)ccc1O)[C@H]1CCCN(C(=O)OC(C)(C)C)[C@H]1c1ccccc1 | 720
33 | CCOC(=O)c1ccc(OCCOc2ccccc2)cc1 | 370
34 | O=C(Nc1ccc2c(c1)CCN2C1CCN(Cc2cccc3cc[nH]c23)C1)c1ccco1 (stereo not drawn) | 1210
35 | CCCc1cc(C(=O)N[C@@H](Cc2ccccc2)[C@H](O)CNC(C)C)c(F)c(N2CCCC2=O)c1 | 940
36 | O=c1cc(NCCCNCc2scc(I)c2I)[nH]c2ccccc12 | 590
37 | Cc1cc(N2CCCCC2)nc2ccc(NC(=O)c3cccc([N+](=O)[O-])c3)cc12 | 380
38 | CCOC(=O)c1[nH]c(-c2ccccc2)nc1-n1nc(C)cc1C | 690
